Here are results for three compounds from US11860174B2, “Anti-cannabidiol antibody and uses thereof” (BOMI, LLC, priority 2017, dated 2024).

The target of this test is T1, human CB2 receptors (Homo sapiens, UniProt P34972).
T1 construct: expressed in transfected cells; host or cells: CHO cells (membrane fraction)
Nature of the test: CHO-CB2 radioligand displacement binding (filtration). The following applies: membranes of CB2 cells, Cheng & Prusoff, n = 3 or 4. Here is the method: CHO cells and membrane preparation. These were stably transfected with cDNA encoding human CB2 receptors. […] Cells were maintained at 37° C. and 5% CO2 in DMEM (f-12 HAM) with 2 mm Glutamine, Geneticin (600 μg ml−1) and Hygromycin (300 μg ml−1). […] CHO cells were suspended in 50 mm Tris buffer (pH 7.4) and 0.32 m sucrose and homogenized with an Ultra-Turrex homogenizer. The homogenate was diluted with 50 mm Tris buffer (pH 7.4) and centrifuged at 50,000×g for 1 hour to isolate the membranes.
CHO—CB2 binding. […] Binding was initiated by the addition of cell membranes (20-30 μg protein). Assays were carried out at 30° C. for 90 minutes before termination by addition of ice-cold wash buffer (50 mm Tris buffer, 1 mg ml−1 BSA) and vacuum filtration using a 12-well sampling manifold (Brandel Cell Harvester) and Whatman GF/B glass-fibre filters that had been soaked in wash buffer at 4° C. for 24 hours. Each reaction tube was washed three times with a 4 ml aliquot of buffer. The filters were oven-dried for 60 minutes and then placed in 5 ml of scintillation fluid (Ultima Gold XR, Packard). Radioactivity was quantified by liquid scintillation spectrometry. Specific binding was defined as the difference between the binding that occurred in the presence and absence of 1 μm reference cannabidiol. Protein assays were performed using a Bio-Rad Dc kit. […] […] Competitive binding curves were fitted with minimum values for displacement of radio ligand from specific binding sites constrained to zero.
Additionally, binding of an MCA, described herein, was tested for this reference sample. The resulting displacement and binding values were used as a reference standard against which 26 CBD samples (acquired from Natural Hemp Solutions, Atlanta Ga.) were compared.

Where [1] appears, read: labelled cannabinoid [3H]-CP55940.

T1 sequence (P34972 whole entry): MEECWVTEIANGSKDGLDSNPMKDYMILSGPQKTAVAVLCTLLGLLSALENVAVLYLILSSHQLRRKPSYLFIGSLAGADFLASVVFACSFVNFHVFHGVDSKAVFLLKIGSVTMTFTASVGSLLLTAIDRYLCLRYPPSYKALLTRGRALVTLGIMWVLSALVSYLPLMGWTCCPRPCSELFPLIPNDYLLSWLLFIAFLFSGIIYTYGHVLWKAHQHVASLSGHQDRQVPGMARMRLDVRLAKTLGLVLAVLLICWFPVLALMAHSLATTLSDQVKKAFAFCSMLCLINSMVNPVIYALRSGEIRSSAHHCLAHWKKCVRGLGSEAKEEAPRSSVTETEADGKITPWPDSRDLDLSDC

In the case of `COc1ccc(C(=O)c2c(C)n(CCN3CCOCC3)c3cc(I)ccc23)cc1` [AM630], the inhibition constant (Ki) – broadly, the dissociation constant of the complex between target and ligand, obtained from inhibition or displacement – is, setting by setting: under setting [1], 31.2 ± 12.4 nM; (labelled cannabinoid [3H]-W1N55212-2) 37.5 ± 15.4 nM.
In the case of `CCCCCCC(C)(C)c1cc(OC)c2c(c1)OC(C)(C)[C@@H]1CC=C(C)C[C@@H]21` [Sample L759633], the Ki under setting [1] was 6.4 ± 2.2 nM.
Still for that read-out and setting: under `C=C1CC[C@@H]2[C@@H](C1)c1c(OC)cc(C(C)(C)CCCCCC)cc1OC2(C)C` [Sample L759656] stands 11.8 ± 2.5 nM.
